Measured values reported in patent US20050182025A1, “Amidinylphenyl compounds and their use as fungicides” (priority 2002, published 2005).

Key:
Type in all cases: in vivo
[1] = test system: Erysiphe graminis f. sp. tritici; experiment: Test A: preventive spray on wheat seedlings, wheat powdery mildew, disease rating; details: wheat seedlings sprayed to run-off, inoculated the following day with Erysiphe graminis f. sp. tritici, rated after 7 days at 20° C.; test concentration not given
In short: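 Wheat seedlings sprayed to run-off with compound suspension (200 ppm ≈ 500 g/ha) in acetone/water with surfactant, inoculated next day with Erysiphe graminis f. sp. tritici spores. After 7 days at 20 °C, disease rated 0–100 as % control relative to untreated plants.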

Septoria nodorum = experiment: Test C: preventive spray on wheat seedlings, Septoria glume blotch, disease rating; details: wheat seedlings sprayed to run-off, inoculated the following day with Septoria nodorum, 48 h saturated atmosphere then 9 days at 20° C.; test concentration not given
In short: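 Wheat seedlings were sprayed to run-off with compound suspensions in acetone/water containing 250 ppm Trem 014 (200 ppm equals 500 g/ha), then inoculated with Septoria nodorum spores next day. Plants were held 48 h saturated at 20° C., then 9 days at 20° C. Disease control was rated 0–100 relative to controls.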

Puccinia recondita = experiment: Test B: preventive spray on wheat seedlings, wheat leaf rust, disease rating; details: wheat seedlings sprayed to run-off, inoculated the following day with Puccinia recondita, 24 h saturated atmosphere then 6 days at 20° C.; test concentration not given
In short: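 Compound suspended in acetone/water (50/50) with 250 ppm Trem 014 surfactant, sprayed to run-off on wheat seedlings (200 ppm ≈ 500 g/ha); P. recondita spores inoculated next day. Plants held 24 h saturated at 20° C, then 6 days at 20° C; disease rated as % control relative to untreated (100 = full control).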

CCCCCCCCCCCCOc1cc(C)c(N=CN(C)C)cc1C [Compound 25]
Test A disease control rating (100 = 100% disease control, 0 = no disease control relative to the controls) [1]: 0%
Test C disease control rating (100 = 100% disease control, 0 = no disease control relative to the controls) (Septoria nodorum): 0%
Test B disease control rating (100 = 100% disease control, 0 = no disease control relative to the controls) (Puccinia recondita): 90%

Cc1cc(OC(C)CCC(C)C)c(C)cc1N=CN(C)C (stereo not drawn) [Compound 32]
Test A disease control rating (100 = 100% disease control, 0 = no disease control relative to the controls) [1]: 97%
Test C disease control rating (100 = 100% disease control, 0 = no disease control relative to the controls) (Septoria nodorum): 95%
Test B disease control rating (100 = 100% disease control, 0 = no disease control relative to the controls) (Puccinia recondita): 100%

CCCCN(C)C(=S)Nc1cc(C(C)C)c(OCCC[Si](C)(C)C)cc1C [compound 91]
Test A disease control rating (100 = 100% disease control, 0 = no disease control relative to the controls) [1]: 0%
Test C disease control rating (100 = 100% disease control, 0 = no disease control relative to the controls) (Septoria nodorum): 0%
Test B disease control rating (100 = 100% disease control, 0 = no disease control relative to the controls) (Puccinia recondita): 26%

CCN(C)C=Nc1cc(F)c(OCCC[Si](C)(C)C)cc1C [compound 59]
Test A disease control rating (100 = 100% disease control, 0 = no disease control relative to the controls) [1]: 100%
Test C disease control rating (100 = 100% disease control, 0 = no disease control relative to the controls) (Septoria nodorum): 100%
Test B disease control rating (100 = 100% disease control, 0 = no disease control relative to the controls) (Puccinia recondita): 100%

C=CCN(C)C(=S)Nc1cc(Cl)c(OCCC[Si](C)(C)C)c(Cl)c1Cl [compound 83]
Test A disease control rating (100 = 100% disease control, 0 = no disease control relative to the controls) [1]: 0%
Test C disease control rating (100 = 100% disease control, 0 = no disease control relative to the controls) (Septoria nodorum): 0%
Test B disease control rating (100 = 100% disease control, 0 = no disease control relative to the controls) (Puccinia recondita): 9%

Cc1cc(OCCC(C)C)c(C)cc1N=CN(C)C [Compound 8]
Test A disease control rating (100 = 100% disease control, 0 = no disease control relative to the controls) [1]: 97%
Test C disease control rating (100 = 100% disease control, 0 = no disease control relative to the controls) (Septoria nodorum): 98%
Test B disease control rating (100 = 100% disease control, 0 = no disease control relative to the controls) (Puccinia recondita): 100%

CCCN(C)C(=S)Nc1cc(C)c(OCCC[Si](C)(C)CC)cc1C [compound 78]
Test A disease control rating (100 = 100% disease control, 0 = no disease control relative to the controls) [1]: 0%
Test C disease control rating (100 = 100% disease control, 0 = no disease control relative to the controls) (Septoria nodorum): 100%
Test B disease control rating (100 = 100% disease control, 0 = no disease control relative to the controls) (Puccinia recondita): 98%

Cc1cc(NC(=O)NCC(C)(C)C)c(C)cc1N=CN(C)C [compound 190]
Test A disease control rating (100 = 100% disease control, 0 = no disease control relative to the controls) [1]: 0%
Test C disease control rating (100 = 100% disease control, 0 = no disease control relative to the controls) (Septoria nodorum): 0%
Test B disease control rating (100 = 100% disease control, 0 = no disease control relative to the controls) (Puccinia recondita): 68%

CCN(C)C(=S)Nc1cc(Cl)c(OCCC[Si](C)(C)C)cc1Cl [compound 184]
Test A disease control rating (100 = 100% disease control, 0 = no disease control relative to the controls) [1]: 100%
Test C disease control rating (100 = 100% disease control, 0 = no disease control relative to the controls) (Septoria nodorum): 78%
Test B disease control rating (100 = 100% disease control, 0 = no disease control relative to the controls) (Puccinia recondita): 99%

CN(C)C(=S)Nc1cc(Cl)c(OCCCC(C)(C)C)cc1Cl [compound 186]
Test A disease control rating (100 = 100% disease control, 0 = no disease control relative to the controls) [1]: 94%
Test C disease control rating (100 = 100% disease control, 0 = no disease control relative to the controls) (Septoria nodorum): 0%
Test B disease control rating (100 = 100% disease control, 0 = no disease control relative to the controls) (Puccinia recondita): 9%

C=C(C)CCC(CC)Oc1cc(C)c(N=C(C)N(C)C)cc1C (stereo not drawn) [compound 104]
Test A disease control rating (100 = 100% disease control, 0 = no disease control relative to the controls) [1]: 0%
Test C disease control rating (100 = 100% disease control, 0 = no disease control relative to the controls) (Septoria nodorum): 0%
Test B disease control rating (100 = 100% disease control, 0 = no disease control relative to the controls) (Puccinia recondita): 23%

CCCCC(CCC)Sc1cc(C)c(N=CN(C)C)cc1C (stereo not drawn) [compound 141]
Test A disease control rating (100 = 100% disease control, 0 = no disease control relative to the controls) [1]: 0%
Test C disease control rating (100 = 100% disease control, 0 = no disease control relative to the controls) (Septoria nodorum): 100%
Test B disease control rating (100 = 100% disease control, 0 = no disease control relative to the controls) (Puccinia recondita): 99%

CCN(C)C=Nc1cc(C)c(OCCC[Si](C)(C)C)cc1C [compound 196]
Test A disease control rating (100 = 100% disease control, 0 = no disease control relative to the controls) [1]: 100%
Test C disease control rating (100 = 100% disease control, 0 = no disease control relative to the controls) (Septoria nodorum): 100%
Test B disease control rating (100 = 100% disease control, 0 = no disease control relative to the controls) (Puccinia recondita): 100%
